# According to patent US8389526B2, “3-heteroarylmethyl-imidazo[1,2-b]pyridazin-6-yl derivatives” (Novartis AG, priority 2009, dated 2013):
# Columns and labels:
# c-Met = biological target: T1, c-Met (Homo sapiens, UniProt P08581); test: GTL-16 c-Met autophosphorylation measured by AlphaScreen detection; format: cell-based; details: GTL-16 cells, 1 h incubation, AlphaScreen p-c-Met; read-out: GTL-16 IC50 c-Met phosphorylation
# T1 construct: adapted to measure the phosphorylation of endogenous cellular proteins in cell lysates; endogenous in cells; host or cells: GTL-16
# Protocol: (§1) C-Met Dependent Cellular Assays
# (§2) A number of compounds of the present invention were assayed in a c-Met dependent proliferation and phosphorylation assay as follows.
# GTL-16 c-Met autophosphorylation measured by AlphaScreen® detection: the human MET-amplified gastric cancer cells GTL-16 were plated in 384-well plates at a density of 10′000 cells in 20 ul complete growth medium (DMEM high glucose supplemented with 10% (v/v) heat inactivated fetal calf serum and of 1 mM sodium pyruvate) and were incubated at […]/5% CO2/95% humidity for 20 h. The cells were washed and the 30 ul assay buffer (DMEM high glucose, 1 mM sodium pyruvate, 0.1% bovine serum albumine) was added. Compounds were diluted in 384-well compound plates to obtain 8-point serial dilutions for 40 test compounds in 90% DMSO, as well as a reference compound plus 16 high- and 16 low (inhibited) controls. These compound plates were prediluted 1:200 in assay buffer into a compound predilution plate and 10 ul of prediluted compound solution were transferred to the cell plate using a 384-well pipettor, resulting in a final DMSO concentration of 0.11%. Cells were incubated for 1 h at […]/5% CO2/95% humidity. The supernatant was removed, the cells were lysed in 25 ul of RIPA [radio immuno precipitation assay] lysis buffer supplemented with 2 mM sodium vanadate and a protease inhibitor cocktail, and cell plates were stored at −80° C.
# For detection of p-c-Met, an AlphaScreen®-based assay was used. AlphaScreen® (Amplified Luminescent Proximity Homogeneous Assay, ALPHA, Perkin Elmer, U.S.A) is a non-radioactive bead-based proximity assay technology to study biomolecular interactions in a homogenous microtiter plate format. This technique has been adapted to measure the phosphorylation of endogenous cellular proteins in cell lysates by the use of specific antibody pairs against the total protein and a phospho-specific epitope. 5 ul of cell lysate was transferred to 384-well low volume Proxiplates for detection using a 384-well pipettor. First, 5 ul of a premix of an anti-c-Met antibody (0.25 ug/ml f.c.), a biotinylated PY20 antibody (phosphotyrosine antibody, 0.05 ug/ml f.c.) and AlphaScreen® Protein A-coupled acceptor beads (10 ug/ml f.c.) in RIPA buffer supplemented with 0.25% (v/w) TOP BLOCK, 2 mM sodium vanadate, and a protease inhibitor cocktail and was added, the plate was sealed, and incubated on a plate shaker for 2 hours at room temperature. Second, 2 ul of dilution buffer containing AlphaScreen® Streptavidin-coated donor beads (10 ug/ml f.c.) in RIPA buffer was added, and the plate was incubated on plate shaker as above for a further 2 hours. The plate was read on an AlphaScreen® compatible plate reader, using standard AlphaScreen® settings.
# [1] = biological target: T2, c-Met receptor tyrosine kinase, GST-c-Met(969-1390) (Homo sapiens, UniProt P08581); test: EPK c-Met profiling assay (LanthaScreen TR-FRET kinase assay); format: biochemical; details: 2 μM ATP, 0.3 nM enzyme, 60 minutes at room temperature
# T2 construct: made in house
# Protocol: A number of compounds of the present invention were assayed in an antibody based kinase phosphorylation assay as follows.
# Epk c-Met Profiling Assay:
# The EPK kinase assay for c-Met receptor tyrosine kinase was developed, using the purified recombinant GST-fusion protein, containing the cytoplasmic domain of the enzyme. GST-c-Met(969-1390) was purified by affinity chromatography.
# The kinase assay is based on the LanthaScreen™ technology. LanthaScreen™ is the detection of Time-Resolved Fluorescence Resonance Energy Transfer (TR-FRET) using lanthanide chelates to measure interactions between various binding partners. In a TR-FRET kinase assay, a long-lifetime lanthanide donor species is conjugated to an antibody that specifically binds to a phosphorylated product of a kinase reaction that is labeled with a suitable acceptor fluorophore. This antibody-mediated interaction brings the lanthanide donor and the acceptor into proximity such that resonance energy transfer can take place, resulting in a detectible increase in the FRET signal.
# The kinase reactions were performed in 384 well microtiter plates in a total reaction volume of 9.05 μL. The assay plates were prepared with 0.05 μL per well of test compound in the appropriate test concentration, as described under “preparation of compound dilutions”. The reactions were started by combining 4.5 μL of ATP solution with 4.5 μL of enzyme-substrate mix (consisting of kinase and substrate). The final concentrations in the kinase reactions were 35 mM Tris/HCl, 1 mM DTT, 0.025% Tween20, 10 μM sodium orthovanadate, 0.25% BSA, 0.6% DMSO, 10 mM MgCl2, 3 mM MnCl2, 2 μM ATP, 50 nM Fluorescein-PolyEAY, and 0.3 nM enzyme.
# The reactions were incubated for 60 minutes at room temperature and stopped by adding 4.5 μL of stop buffer (50 mM EDTA, 0.04% NP40, 20 mM Tris/HCl).
# Subsequently 4.5 μL of detection mix (50 mM Tris/HCl, 2 mM DTT, 0.05% Tween20, 20 μM sodium orthovanadate, 1% BSA, 1.72 μg/mL Tb-PY20 antibody) were added to the stopped reactions. After 30 minutes incubation at room temperature, the plates were measured in a BMG Pherastar fluorescence reader. The effect of compound on the enzymatic activity was in all assays obtained from the linear progress curves and determined from one reading (end point measurement).
# Preparation of Compound Dilutions
# Test compounds were dissolved in DMSO (10 mM) and transferred into 1.4 mL flat bottom or V-shaped Matrix tubes carrying a unique 2D matrix. The stock solutions were stored at −20° C. if not used immediately. For the test procedure the vials were defrosted and identified by a scanner whereby a working sheet was generated that guided the subsequent working steps.
# Compound dilutions were made in 96 well plates. This format enabled the assay of maximally 40 individual test compounds at 8 concentrations (single points) including 4 reference compounds. The dilution protocol included the production of “pre-dilution plates”, “master plates” and “assay plates”.
# Pre-dilution plates: 96 polypropylene well plates were used as pre-dilution plates. A total of 4 pre-dilution plates were prepared including 10 test compounds each on the plate positions A1-A10, one standard compound at A11 and one DMSO control at A12. All dilution steps were done on a HamiltonSTAR robot.
# Master plates: 100 μL of individual compound dilutions including standard compound and controls of the 4 “pre-dilution plates” were transferred into a 384 “master plate” including the following concentrations 1′820, 564, 182, 54.6, 18.2, 5.46, 1.82 and 0.546 μM, respectively in 90% of DMSO.
# Assay plates: Identical “assay plates” were then prepared by pipetting 50 nL each of compound dilutions of the “master plates” into 384-well “assay plates” by means of a HummingBird 384-channel dispenser. These plates were used directly for the assay which was performed in a total volume of 9.05 μL. […]
# [2] = tested on: MET-amplified gastric cancer cell line GTL-16; test: GTL-16 proliferation assay (MTS); format: cell-based; details: Homo sapiens, GTL-16 cells, 72 h incubation
# Protocol: as §1, §2
# GTL-16 proliferation assay: the MET-amplified gastric cancer cell line GTL-16 was grown under standard cell culture conditions in DMEM [Dulbecco's Modified Eagle Medium] (high glucose) supplemented with 10% heat-inactivated fetal calf serum and 2 mM L-glutamine. For proliferation assays, cells were seeded at 3000 per well in 96-well-plates. 24 h later, a 10-point dilution series of each compound (3-fold steps, ranging from […]) was prepared in DMSO. Compound were then diluted 1000-fold in growth media in two steps and added to cells in triplicates, resulting in a final volume of […] per well and maximal final compound concentrations of […]. A DMSO-only control was included. Cells were incubated for 72 h and the amount of viable cells was then measured by adding […] of MTS reagent (CellTiter 96® AQueous Non-Radioactive Cell Proliferation Assay, Promega), further incubation for 30′, and reading the optical density at 490 nm.
# T2 sequence (P08581 969-1390): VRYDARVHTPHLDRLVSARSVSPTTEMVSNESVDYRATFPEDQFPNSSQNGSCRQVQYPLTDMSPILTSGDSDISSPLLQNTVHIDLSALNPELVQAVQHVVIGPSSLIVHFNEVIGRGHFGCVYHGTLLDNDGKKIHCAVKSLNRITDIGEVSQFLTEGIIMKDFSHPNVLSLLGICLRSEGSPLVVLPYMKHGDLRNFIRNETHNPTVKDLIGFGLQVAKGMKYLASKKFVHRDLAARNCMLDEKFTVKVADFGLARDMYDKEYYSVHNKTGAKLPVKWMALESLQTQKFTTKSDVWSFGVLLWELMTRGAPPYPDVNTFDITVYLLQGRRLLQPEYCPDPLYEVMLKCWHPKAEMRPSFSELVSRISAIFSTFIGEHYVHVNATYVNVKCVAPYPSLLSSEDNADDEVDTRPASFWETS
# T1 sequence (P08581 25-1390): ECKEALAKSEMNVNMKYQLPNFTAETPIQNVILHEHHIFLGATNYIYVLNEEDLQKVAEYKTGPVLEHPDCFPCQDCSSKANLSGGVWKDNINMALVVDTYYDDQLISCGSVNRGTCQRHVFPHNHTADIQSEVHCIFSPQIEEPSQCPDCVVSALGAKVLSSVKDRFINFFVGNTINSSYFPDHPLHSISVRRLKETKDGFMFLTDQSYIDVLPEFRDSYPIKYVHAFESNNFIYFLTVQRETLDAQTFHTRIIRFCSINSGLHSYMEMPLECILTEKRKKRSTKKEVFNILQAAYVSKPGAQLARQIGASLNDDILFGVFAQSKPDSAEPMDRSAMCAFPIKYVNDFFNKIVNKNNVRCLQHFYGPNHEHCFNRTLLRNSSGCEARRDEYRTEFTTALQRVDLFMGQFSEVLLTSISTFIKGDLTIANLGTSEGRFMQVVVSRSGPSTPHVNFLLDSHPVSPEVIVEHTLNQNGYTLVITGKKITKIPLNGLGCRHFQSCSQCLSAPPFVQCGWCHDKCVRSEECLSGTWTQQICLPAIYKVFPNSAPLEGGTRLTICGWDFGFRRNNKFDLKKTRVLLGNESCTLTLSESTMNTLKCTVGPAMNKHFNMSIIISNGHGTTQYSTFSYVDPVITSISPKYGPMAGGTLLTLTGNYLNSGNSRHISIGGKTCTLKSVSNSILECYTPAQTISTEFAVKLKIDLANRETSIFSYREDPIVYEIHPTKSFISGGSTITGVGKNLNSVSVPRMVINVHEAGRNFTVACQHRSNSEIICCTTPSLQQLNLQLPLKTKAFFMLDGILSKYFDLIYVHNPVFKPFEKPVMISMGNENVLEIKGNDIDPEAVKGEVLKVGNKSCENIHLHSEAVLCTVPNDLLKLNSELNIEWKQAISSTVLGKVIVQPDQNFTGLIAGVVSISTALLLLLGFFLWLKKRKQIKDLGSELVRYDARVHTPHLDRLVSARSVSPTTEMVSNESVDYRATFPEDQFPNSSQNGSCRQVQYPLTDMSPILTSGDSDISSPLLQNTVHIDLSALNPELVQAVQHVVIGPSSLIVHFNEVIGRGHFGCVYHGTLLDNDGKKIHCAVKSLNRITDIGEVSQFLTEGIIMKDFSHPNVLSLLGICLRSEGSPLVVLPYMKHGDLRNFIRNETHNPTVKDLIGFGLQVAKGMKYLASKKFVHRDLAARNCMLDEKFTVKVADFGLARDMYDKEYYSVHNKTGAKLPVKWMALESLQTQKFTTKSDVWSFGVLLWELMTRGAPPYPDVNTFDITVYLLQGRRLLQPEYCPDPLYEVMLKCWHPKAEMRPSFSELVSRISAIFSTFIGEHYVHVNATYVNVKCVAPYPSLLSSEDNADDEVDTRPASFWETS
Compound,IC50 (c-Met) [nM],IC50 [1] [nM],IC50 [2] [nM]
"CC(c1c(F)cc2c(cnn2C)c1F)c1cnc2ccc(N3CCN(C)C(=O)C3)nn12 (racemic) [Example 49, (rac)-4-(3-(1-(4,6-difluoro-1-methyl-1H-indazol-5-yl)ethyl)imidazo[1,2-b]pyridazin-6-yl)-1-methylpiperazin-2-one]",6.5,16,29
CC(c1c(F)cc2c(cnn2C)c1F)c1cnc2ccc(N3CCNC(=O)C3)nn12 (racemic) [Example 51],8,22,16
"CC(c1c(F)cc2c(cnn2C(C)C)c1F)c1cnc2ccc(N3CCN(C)C(=O)C3)nn12 (racemic) [Example 56, (rac)-4-(3-(1-(4,6-difluoro-1-isopropyl-1H-indazol-5-yl)ethyl)imidazo[1,2-b]pyridazin-6-yl)-1-methylpiperazin-2-one]",7,27,49
"CC(c1c(F)cc2c(cnn2C(C)C)c1F)c1cnc2ccc(N3CCNC(=O)C3)nn12 (racemic) [Example 57, (rac)-4-(3-(1-(4,6-difluoro-1-isopropyl-1H-indazol-5-yl)ethyl)imidazo[1,2-b]pyridazin-6-yl)piperazin-2-one]",9,17,36
"CC1C(=O)NCCN1c1ccc2ncc([C@@H](C)c3c(F)cc4ncccc4c3F)n2n1 (mixture of isomers) [Example 58, (rac)-4-{3-[(S)-1-(5,7-Difluoro-quinolin-6-yl)-ethyl]-imidazo[1,2-b]pyridazin-6-yl}-3-methyl-piperazin-2-one]",3.7,2.7,7.1
"C[C@@H](c1c(F)cc2ncccc2c1F)c1cnc2ccc(N3CCN(C)CC3)nn12 [Example 9, 5,7-Difluoro-6-{(S)-1-[6-(4-methyl-piperazin-1-yl)-imidazo[1,2-b]pyridazin-3-yl]-ethyl}-quinoline]",2.2,2.9,10
"C[C@@H](c1c(F)cc2ncccc2c1F)c1cnc2ccc(N3CCN(C=O)CC3)nn12 [Example 13, 4-{3-[(S)-1-(5,7-Difluoro-quinolin-6-yl)-ethyl]-imidazo[1,2-b]pyridazin-6-yl}-piperazine-1-carbaldehyde]",2.5,< 3,9.2
"C[C@@H](c1c(F)cc2ncccc2c1F)c1cnc2ccc(N3CCN(C(N)=O)CC3)nn12 [Example 16, 4-{3-[(S)-1-(5,7-Difluoro-quinolin-6-yl)-ethyl]-imidazo[1,2-b]pyridazin-6-yl}-piperazine-1-carboxylic acid amide]",5.5,1.7,15
"C[C@@H](c1cc2cnn(C)c2cc1F)c1cnc2ccc(N3CCN(C)C(=O)C3)nn12 [Example 26, 4-{3-[(S)-1-(6-Fluoro-1-methyl-1H-indazol-5-yl)-ethyl]-imidazo[1,2-b]pyridazin-6-yl}-1-methyl-piperazin-2-one]",10,26,66
"CC(=O)N1CCN(c2ccc3ncc([C@@H](C)c4cc5cnn(C)c5cc4F)n3n2)CC1 [Example 29, 1-(4-{3-[(S)-1-(6-Fluoro-1-methyl-1H-indazol-5-yl)-ethyl]-imidazo[1,2-b]pyridazin-6-yl}-piperazin-1-yl)-ethanone]",25,55,136
"CN1CCN(c2ccc3ncc(Cc4c(F)cc5ncccc5c4F)n3n2)CC1=O [Example 30, 4-[3-(5,7-Difluoro-quinolin-6-ylmethyl)-imidazo[1,2-b]pyridazin-6-yl]-1-methyl-piperazin-2-one]",< 3,6.6,37
"O=C1CN(c2ccc3ncc(Cc4c(F)cc5ncccc5c4F)n3n2)CCN1 [Example 31, 4-[3-(5,7-Difluoro-quinolin-6-ylmethyl)-imidazo[1,2-b]pyridazin-6-yl]-piperazin-2-one]",4.7,8.2,15
"Fc1cc2ncccc2c(F)c1Cc1cnc2ccc(N3CCNCC3)nn12 [Example 32, 5,7-Difluoro-6-(6-piperazin-1-yl-imidazo[1,2-b]pyridazin-3-ylmethyl)-quinoline]",< 3,7.4,25
"CN1CCN(c2ccc3ncc(Cc4c(F)cc5ncccc5c4F)n3n2)CC1 [Example 33, 5,7-Difluoro-6-[6-(4-methyl-piperazin-1-yl)-imidazo[1,2-b]pyridazin-3-ylmethyl]-quinoline]",9,14,46
"CC(=O)N1CCN(c2ccc3ncc(Cc4c(F)cc5ncccc5c4F)n3n2)CC1 [Example 34, 1-{4-[3-(5,7-Difluoro-quinolin-6-ylmethyl)-imidazo[1,2-b]pyridazin-6-yl]-piperazin-1-yl}-ethanone]",7,10,65
